Reference: ChEMBL document CHEMBL4190204, “Trichoderpyrone, a Unique Polyketide Hybrid with a Cyclopentenone-Pyrone Skeleton from the Plant Endophytic Fungus Trichoderma gamsii” (J Nat Prod, 2017)

Tests used:
Assay type in all cases: functional, cell-based
A549 = assay: Cytotoxicity against human A549 cells assessed as reduction in cell viability by MTT assay
HeLa = assay: Cytotoxicity against human HeLa cells assessed as reduction in cell viability by MTT assay
HepG2 = assay: Cytotoxicity against human HepG2 cells assessed as reduction in cell viability by MTT assay

| SMILES | IC50 (A549) | IC50 (HeLa) | IC50 (HepG2) |
| --- | --- | --- | --- |
| C=C[C@]1(O)CC(N)=C([C@@H](C)c2c(O)cc(C)oc2=O)C1=O | 16.9 µM | 33.9 µM | 30.8 µM |
| COc1cc([C@@H]2c3cc4c(cc3[C@@H](O[C@@H]3O[C@@H]5CO[C@@H](C)O[C@H]5[C@H](O)[C@H]3O)[C@H]3COC(=O)[C@H]23)OCO4)cc(OC)c1O [ETOPOSIDE] | 16.6 µM | 15 µM | 16.1 µM |
